From patent US20050101678A1, “Antibacterial composition” (priority 2000, published 2005)

How the values were obtained:
Type in all cases: cell-based
[1] = tested on: Ax 26 Corynebacterium sp.; assay: MIC microtiter plate test, axilla strain Ax 26; conditions: for Bacteriostatic activity Corynebact. Ax 26: Table 7, concentration for at least 80% reduction in growth during 24 hours; for Minimal inhibitory concentration (MIC) Ax 26: Table 1, growth inhibited by at least 80%, 24 h at 36° C.
From the text: (§1) The different bacterial strains had been isolated from the human axilla by current microbiological practice. They were taxonomically identified by cell morphology, gram-reaction, and biochemical tests included in the Api coryne test kit (BioMerieux, France). Strain Staphylococcus epidermidis Ax25 was identified by fatty acid methyl ester analysis (FAME; German type strain collection DSMZ, Germany). The strains were maintained on Tryptic soy […] plates, this standard medium being amended with 5 g per Liter of Tween 80 and 1 g of Soybean lecithin. Plates were incubated at 36° C. for a period 48 hours. The bacteria were then swabbed from the plates and suspended in 4 ml of Müller-Hinton broth amended with 100 mg of Tween 80 per Liter (MH-Tween) and incubated again at 36° C. for 16 hours. Following incubation the bacterial suspensions were diluted in MH-Tween to obtain a final cell density of 10^6 colony forming units per ml. For each fragrance material four microtiter plates were used in the example, each microtiter plate having 8 rows, A-H, and 12 columns, 1-12.
(§2) To each column a diluted suspension of a different test organism was distributed, 100 μl per well. 1% stock solutions of the fragrance materials were then prepared in MH-Tween broth. The fragrance material was dispersed by ultrasonication into the aqueous medium to obtain a homogenous emulsion. 100 μl per well of this emulsion was then added to the first row of the microtiter plates already containing the target organisms. Serial dilution series were then prepared starting at row A and continuing until row G, each time removing 100 μl from a well and transferring it to the next well. In this way fragrance concentrations of 0.5%, 0.25%, 0.125%, 0.0625%, 0.03125%, 0.0156%, and 0.0078% were tested for their antibacterial efficacy. The reference compound Triclosan was tested at 16-fold lower concentrations. The plates were covered with plastic films and incubated for 24 h at 36° C. with shaking at 250 rpm. The turbidity developing in the microtiter plates was then examined after 24 h to determine microbial growth. The minimal concentration of fragrance inhibiting the growth of an organism by at least 80% was determined as the minimal inhibitory concentration (MIC).
(§3) Ax 25 was identified as Staphylococcus. epidermidis by FAME analysis. Identification with the Api Coryne test kit yielded the following species assignments for the remainder of the strains: Ax 26 Corynebacterium sp.; Ax 3 Corynebacterium bovis; Ax 7 Corynebacterium group G; Ax 10 Corynebacterium jeikeium; Ax 11 Corynebacterium jeikeium; Ax 12 Corynebacterium jeikeium; Ax 15 Corynebacterium jeikeium; Ax 20 Corynebacterium striatum/amycolatum; and Ax 19 Corynebacterium jeikeium. The strains were isolated from the axilla of 8 human volunteers. Based on biochemical tests and colony morphology all strains were distinct from each other, even the several strains all belonging to Corynebacterium jeikeium.

[2] = tested on: Corynebacteria; assay: Activity against Corynebacteria; conditions: statement in words
From the text: With 2-methoxy-4-(5,5,6-trimethylbicyclo[2.2.1]hept-2-yl)cyclohexan-1-ol an outstanding activity is achieved.
as §1
To each column a diluted suspension of a different test organism was distributed, 100 μl per well. 1% stock solutions of the fragrance materials were then prepared in MH-Tween broth. […]

[3] = tested on: Ax 3 Corynebacterium bovis; assay: MIC microtiter plate test, axilla strain Ax 3; conditions: Table 1; growth inhibited by at least 80%, 24 h at 36° C.
From the text: as §1
as §2, with “The minimal concentration of fragrance inhibiting the growth of an organism by at least 80% was determined as the minimal inhibitory concentration (MIC).” left out

[4] = tested on: Ax 10 Corynebacterium jeikeium; assay: MIC microtiter plate test, axilla strain Ax 10; conditions: Table 1; growth inhibited by at least 80%, 24 h at 36° C.
From the text: as §1
as §2, with “The minimal concentration of fragrance inhibiting the growth of an organism by at least 80% was determined as the minimal inhibitory concentration (MIC).” left out

[5] = tested on: Ax 12 Corynebacterium jeikeium; assay: MIC microtiter plate test, axilla strain Ax 12; conditions: Table 1; growth inhibited by at least 80%, 24 h at 36° C.
From the text: as §1
as §2, with “The minimal concentration of fragrance inhibiting the growth of an organism by at least 80% was determined as the minimal inhibitory concentration (MIC).” left out

[6] = tested on: Ax 7 Corynebacterium group G; assay: MIC microtiter plate test, axilla strain Ax 7; conditions: for Minimal inhibitory concentration (MIC) Ax 7: Table 1, growth inhibited by at least 80%, 24 h at 36° C.
From the text: as §1, §2, §3

[7] = tested on: Staphylococcus epidermidis Ax25; assay: MIC microtiter plate test, axilla strain Ax 25; conditions: for Minimal inhibitory concentration (MIC) Ax 25: Table 1, growth inhibited by at least 80%, 24 h at 36° C.
From the text: as §1, §2, §3

[8] = tested on: Ax 15 Corynebacterium jeikeium; assay: MIC microtiter plate test, axilla strain Ax 15; conditions: for Minimal inhibitory concentration (MIC) Ax 15: Table 1, growth inhibited by at least 80%, 24 h at 36° C.
From the text: as §1, §2, §3

[9] = tested on: Ax 11 Corynebacterium jeikeium; assay: MIC microtiter plate test, axilla strain Ax 11; conditions: Table 1; growth inhibited by at least 80%, 24 h at 36° C.
From the text: as §1
as §2, with “The minimal concentration of fragrance inhibiting the growth of an organism by at least 80% was determined as the minimal inhibitory concentration (MIC).” left out

[10] = tested on: Ax 20 Corynebacterium striatum/amycolatum; assay: MIC microtiter plate test, axilla strain Ax 20; conditions: Table 1; growth inhibited by at least 80%, 24 h at 36° C.
From the text: as §1
as §2, with “The minimal concentration of fragrance inhibiting the growth of an organism by at least 80% was determined as the minimal inhibitory concentration (MIC).” left out

[11] = tested on: Ax 19 Corynebacterium jeikeium; assay: MIC microtiter plate test, axilla strain Ax 19; conditions: Table 1; growth inhibited by at least 80%, 24 h at 36° C.
From the text: as §1
To each column a diluted suspension of a different test organism was distributed, 100 μl per well. 1% stock solutions of the fragrance materials were then prepared in MH-Tween broth. The fragrance material was dispersed by ultrasonication into the aqueous medium to obtain a homogenous emulsion. […]

[12] = Table 7, concentration for at least 80% reduction in growth during 24 hours

Row | Compound | Bacteriostatic activity Corynebact. Ax 26 [1] | Minimal inhibitory concentration (MIC) Ax 3 [3] [% weight/volume] | Minimal inhibitory concentration (MIC) Ax 10 [4] [% weight/volume] | Minimal inhibitory concentration (MIC) Ax 12 [5] [% weight/volume] | Minimal inhibitory concentration (MIC) Ax 7 [6] [% weight/volume] | Minimal inhibitory concentration (MIC) Ax 25 [7] [% weight/volume] | Minimal inhibitory concentration (MIC) Ax 15 [8] | Minimal inhibitory concentration (MIC) Ax 26 [1] [% weight/volume] | Minimal inhibitory concentration (MIC) Ax 11 [9] [% weight/volume] | Minimal inhibitory concentration (MIC) Ax 20 [10] [% weight/volume] | other results
1 | COC1CC(C2CC3CC2C(C)C3(C)C)CCC1O (single isomer, unassigned) [Peak B] | 0.0016 percent (w/v) |  |  |  |  |  |  |  |  |  | 
2 | COC1CC(C2CC3CC2C(C)C3(C)C)CCC1O (centres unmarked) [2-methoxy-4-(5,5,6-trimethylbicyclo[2.2.1]hept-2-yl)cyclohexan-1-ol] |  |  |  |  |  |  |  |  |  |  | activity against Corynebacteria [2]: highest activity
3 | COC1CCC(C2CC3CC2C(C)C3(C)C)CC1O (centres unmarked) [2-methoxy-5-(5,5,6-trimethyl-bicyclo[2.2.1]hept-2-yl)cyclohexan-1-ol] |  |  |  |  |  |  |  |  |  |  | activity against Corynebacteria [2]: highest activity
4 | CC1=CCC(/C=C\C(C)C(C)O)C1(C)C (centres unmarked) [Ebanol] |  | 0.1250 | 0.2500 | 0.2500 | 0.1250 | 0.1250 | 0.2500 % weight/volume | 0.1250 | 0.2500 | 0.1250 | 
5 | CC(C)=CCCC(C)=CCCC(C)=CCO [Farnesol, 3,7,11-trimethyl-2,6,10-dodecatrien-1-ol] | 0.0078 percent (w/v) |  |  |  |  |  |  | 0.0078 |  |  | 
6 | CCC(=CCC1CC=C(C)C1(C)C)CO (centres unmarked) [Radjanol] |  |  |  |  | 0.0625 | 0.1250 | 0.125. % weight/volume | 0.0625 |  |  | 
7 | CC1=CCC(CCC(C)C(C)O)C1(C)C (centres unmarked) [Sandalore] |  | 0.1250 | 0.1250 | 0.1250 | 0.1250 | 0.1250 | 0.2500 % weight/volume | 0.1250 | 0.1250 | 0.1250 | 
8 | Oc1cc(Cl)ccc1Oc1ccc(Cl)cc1Cl [Triclosan, 2,4,4′-trichloro-2′-hydroxy-diphenyl-ether] | 0.0025 percent (w/v) | 0.0029 | 0.0020 | 0.0017 | 0.0029 | 0.000015 | 0.0029 % weight/volume | 0.0015 | 0.0029 | 0.0107 | Bacteriostatic activity Corynebact. Ax 7 [6, 12]: 0.0025 percent (w/v); Bacteriostatic activity S. epidermidis [7, 12]: 0.000015 percent (w/v); Bacteriostatic activity Corynebact. Ax 15 [8, 12]: 0.0030 percent (w/v); Minimal inhibitory concentration (MIC) Ax 19 [11]: 0.0039 % weight/volume
